Assay results taken from the NIST ThermoML archive (doi:10.1016/j.jct.2015.08.014).
Numbers after ± are expanded uncertainties.

Assay: xn = mol fraction of the nth substance listed
Details: 100 kPa, Liquid; for electrical conductivity: Alternating current cell with electrodes; for mass density: Vibrating tube method; for viscosity: Capillary tube (Ostwald / Ubbelohde) method

For `CCCC[N+]1(C)CCCC1.N#CN=C=[N-]` [1-butyl-1-methylpyrrolidinium dicyanamide] + O=C1CCCO1, the electrical conductivity (293.15 K, Frequency=0.00652174 MHz, x1 = 0.1449) was 2.31 ± 0.024 S/m, the electrical conductivity (293.15 K, Frequency=0.00652174 MHz, x1 = 0.1859) was 2.45 ± 0.025 S/m and the electrical conductivity (293.15 K, Frequency=0.00652174 MHz, x1 = 0.2493) was 2.37 ± 0.024 S/m. The electrical conductivity (293.15 K, Frequency=0.00652174 MHz, x1 = 0.3029) was 2.29 ± 0.023 S/m, the electrical conductivity (293.15 K, Frequency=0.00652174 MHz, x1 = 0.3845) was 2.116 ± 0.021 S/m and the electrical conductivity (293.15 K, Frequency=0.00652174 MHz, x1 = 0.4985) was 1.84 ± 0.019 S/m. For the same compound, the electrical conductivity (293.15 K, Frequency=0.00652174 MHz, x1 = 0.6954) was 1.46 ± 0.015 S/m, the electrical conductivity (293.15 K, Frequency=0.00652174 MHz, x1 = 0.9013) was 1.19 ± 0.012 S/m and the electrical conductivity (293.15 K, Frequency=0.00652174 MHz, x1 = 1) was 1.123 ± 0.011 S/m. For the same compound, the electrical conductivity (293.15 K, Frequency=0.00694444 MHz, x1 = 0.0463) was 1.37 ± 0.024 S/m, the electrical conductivity (293.15 K, Frequency=0.00694444 MHz, x1 = 0.0987) was 2.05 ± 0.025 S/m and the electrical conductivity (293.15 K, Frequency=0.00694444 MHz, x1 = 0.1449) was 2.31 ± 0.024 S/m. For the same compound, the electrical conductivity (293.15 K, Frequency=0.00694444 MHz, x1 = 0.1859) was 2.45 ± 0.025 S/m, the electrical conductivity (293.15 K, Frequency=0.00694444 MHz, x1 = 0.2493) was 2.37 ± 0.024 S/m and the electrical conductivity (293.15 K, Frequency=0.00694444 MHz, x1 = 0.3029) was 2.29 ± 0.023 S/m. It also gave an electrical conductivity (293.15 K, Frequency=0.00694444 MHz, x1 = 0.3845) of 2.116 ± 0.021 S/m, an electrical conductivity (293.15 K, Frequency=0.00694444 MHz, x1 = 0.4985) of 1.84 ± 0.019 S/m and an electrical conductivity (293.15 K, Frequency=0.00694444 MHz, x1 = 0.6954) of 1.46 ± 0.015 S/m. The electrical conductivity (293.15 K, Frequency=0.00694444 MHz, x1 = 0.9013) was 1.19 ± 0.012 S/m, the electrical conductivity (293.15 K, Frequency=0.00694444 MHz, x1 = 1) was 1.123 ± 0.011 S/m and the electrical conductivity (293.15 K, Frequency=0.0075 MHz, x1 = 0.0463) was 1.37 ± 0.024 S/m. The electrical conductivity (293.15 K, Frequency=0.0075 MHz, x1 = 0.0987) was 2.05 ± 0.025 S/m, the electrical conductivity (293.15 K, Frequency=0.0075 MHz, x1 = 0.1449) was 2.31 ± 0.024 S/m and the electrical conductivity (293.15 K, Frequency=0.0075 MHz, x1 = 0.1859) was 2.45 ± 0.025 S/m. The electrical conductivity (293.15 K, Frequency=0.0075 MHz, x1 = 0.2493) was 2.37 ± 0.024 S/m, the electrical conductivity (293.15 K, Frequency=0.0075 MHz, x1 = 0.3029) was 2.29 ± 0.023 S/m and the electrical conductivity (293.15 K, Frequency=0.0075 MHz, x1 = 0.3845) was 2.116 ± 0.021 S/m. For the same compound, the electrical conductivity (293.15 K, Frequency=0.0075 MHz, x1 = 0.4985) was 1.84 ± 0.019 S/m, the electrical conductivity (293.15 K, Frequency=0.0075 MHz, x1 = 0.6954) was 1.46 ± 0.015 S/m and the electrical conductivity (293.15 K, Frequency=0.0075 MHz, x1 = 0.9013) was 1.19 ± 0.012 S/m. The electrical conductivity (293.15 K, Frequency=0.0075 MHz, x1 = 1) was 1.123 ± 0.011 S/m, the electrical conductivity (293.15 K, Frequency=0.008 MHz, x1 = 0.0463) was 1.37 ± 0.024 S/m and the electrical conductivity (293.15 K, Frequency=0.008 MHz, x1 = 0.0987) was 2.05 ± 0.025 S/m. It also gave an electrical conductivity (293.15 K, Frequency=0.008 MHz, x1 = 0.1449) of 2.31 ± 0.024 S/m, an electrical conductivity (293.15 K, Frequency=0.008 MHz, x1 = 0.1859) of 2.45 ± 0.025 S/m and an electrical conductivity (293.15 K, Frequency=0.008 MHz, x1 = 0.2493) of 2.37 ± 0.024 S/m. It also gave an electrical conductivity (293.15 K, Frequency=0.008 MHz, x1 = 0.3029) of 2.29 ± 0.023 S/m, an electrical conductivity (293.15 K, Frequency=0.008 MHz, x1 = 0.3845) of 2.116 ± 0.021 S/m and an electrical conductivity (293.15 K, Frequency=0.008 MHz, x1 = 0.4985) of 1.84 ± 0.019 S/m. It also gave an electrical conductivity (293.15 K, Frequency=0.008 MHz, x1 = 0.6954) of 1.46 ± 0.015 S/m, an electrical conductivity (293.15 K, Frequency=0.008 MHz, x1 = 0.9013) of 1.19 ± 0.012 S/m and an electrical conductivity (293.15 K, Frequency=0.008 MHz, x1 = 1) of 1.123 ± 0.011 S/m. For the same compound, the electrical conductivity (293.15 K, Frequency=0.00857143 MHz, x1 = 0.0463) was 1.37 ± 0.024 S/m, the electrical conductivity (293.15 K, Frequency=0.00857143 MHz, x1 = 0.0987) was 2.05 ± 0.025 S/m and the electrical conductivity (293.15 K, Frequency=0.00857143 MHz, x1 = 0.1449) was 2.31 ± 0.024 S/m. The electrical conductivity (293.15 K, Frequency=0.00857143 MHz, x1 = 0.1859) was 2.45 ± 0.025 S/m, the electrical conductivity (293.15 K, Frequency=0.00857143 MHz, x1 = 0.2493) was 2.38 ± 0.024 S/m and the electrical conductivity (293.15 K, Frequency=0.00857143 MHz, x1 = 0.3029) was 2.3 ± 0.023 S/m. It also gave an electrical conductivity (293.15 K, Frequency=0.00857143 MHz, x1 = 0.3845) of 2.12 ± 0.022 S/m, an electrical conductivity (293.15 K, Frequency=0.00857143 MHz, x1 = 0.4985) of 1.84 ± 0.019 S/m and an electrical conductivity (293.15 K, Frequency=0.00857143 MHz, x1 = 0.6954) of 1.46 ± 0.015 S/m. It also gave an electrical conductivity (293.15 K, Frequency=0.00857143 MHz, x1 = 0.9013) of 1.19 ± 0.012 S/m, an electrical conductivity (293.15 K, Frequency=0.00857143 MHz, x1 = 1) of 1.123 ± 0.011 S/m and an electrical conductivity (293.15 K, Frequency=0.00892857 MHz, x1 = 0.0463) of 1.37 ± 0.024 S/m. For the same compound, the electrical conductivity (293.15 K, Frequency=0.00892857 MHz, x1 = 0.0987) was 2.05 ± 0.025 S/m, the electrical conductivity (293.15 K, Frequency=0.00892857 MHz, x1 = 0.1449) was 2.31 ± 0.024 S/m and the electrical conductivity (293.15 K, Frequency=0.00892857 MHz, x1 = 0.1859) was 2.45 ± 0.025 S/m. For the same compound, the electrical conductivity (293.15 K, Frequency=0.00892857 MHz, x1 = 0.2493) was 2.38 ± 0.024 S/m, the electrical conductivity (293.15 K, Frequency=0.00892857 MHz, x1 = 0.3029) was 2.3 ± 0.023 S/m and the electrical conductivity (293.15 K, Frequency=0.00892857 MHz, x1 = 0.3845) was 2.12 ± 0.022 S/m. The electrical conductivity (293.15 K, Frequency=0.00892857 MHz, x1 = 0.4985) was 1.84 ± 0.019 S/m, the electrical conductivity (293.15 K, Frequency=0.00892857 MHz, x1 = 0.6954) was 1.46 ± 0.015 S/m and the electrical conductivity (293.15 K, Frequency=0.00892857 MHz, x1 = 0.9013) was 1.19 ± 0.012 S/m. For the same compound, the electrical conductivity (293.15 K, Frequency=0.00892857 MHz, x1 = 1) was 1.124 ± 0.011 S/m, the electrical conductivity (293.15 K, Frequency=0.00961538 MHz, x1 = 0.0463) was 1.37 ± 0.024 S/m and the electrical conductivity (293.15 K, Frequency=0.00961538 MHz, x1 = 0.0987) was 2.05 ± 0.025 S/m. It also gave an electrical conductivity (293.15 K, Frequency=0.00961538 MHz, x1 = 0.1449) of 2.31 ± 0.024 S/m, an electrical conductivity (293.15 K, Frequency=0.00961538 MHz, x1 = 0.1859) of 2.45 ± 0.025 S/m and an electrical conductivity (293.15 K, Frequency=0.00961538 MHz, x1 = 0.2493) of 2.38 ± 0.024 S/m. It also gave an electrical conductivity (293.15 K, Frequency=0.00961538 MHz, x1 = 0.3029) of 2.3 ± 0.023 S/m, an electrical conductivity (293.15 K, Frequency=0.00961538 MHz, x1 = 0.3845) of 2.12 ± 0.022 S/m and an electrical conductivity (293.15 K, Frequency=0.00961538 MHz, x1 = 0.4985) of 1.84 ± 0.019 S/m. It also gave an electrical conductivity (293.15 K, Frequency=0.00961538 MHz, x1 = 0.6954) of 1.46 ± 0.015 S/m, an electrical conductivity (293.15 K, Frequency=0.00961538 MHz, x1 = 0.9013) of 1.19 ± 0.012 S/m and an electrical conductivity (293.15 K, Frequency=0.00961538 MHz, x1 = 1) of 1.124 ± 0.011 S/m. The electrical conductivity (293.15 K, Frequency=0.01 MHz, x1 = 0.0463) was 1.37 ± 0.024 S/m, the electrical conductivity (293.15 K, Frequency=0.01 MHz, x1 = 0.0987) was 2.05 ± 0.025 S/m and the electrical conductivity (293.15 K, Frequency=0.01 MHz, x1 = 0.1449) was 2.31 ± 0.024 S/m. For the same compound, the electrical conductivity (293.15 K, Frequency=0.01 MHz, x1 = 0.1859) was 2.45 ± 0.025 S/m, the electrical conductivity (293.15 K, Frequency=0.01 MHz, x1 = 0.2493) was 2.38 ± 0.024 S/m and the electrical conductivity (293.15 K, Frequency=0.01 MHz, x1 = 0.3029) was 2.3 ± 0.023 S/m. For the same compound, the electrical conductivity (293.15 K, Frequency=0.01 MHz, x1 = 0.3845) was 2.12 ± 0.022 S/m, the electrical conductivity (293.15 K, Frequency=0.01 MHz, x1 = 0.4985) was 1.84 ± 0.019 S/m and the electrical conductivity (293.15 K, Frequency=0.01 MHz, x1 = 0.6954) was 1.46 ± 0.015 S/m. It also gave an electrical conductivity (293.15 K, Frequency=0.01 MHz, x1 = 0.9013) of 1.19 ± 0.012 S/m, an electrical conductivity (293.15 K, Frequency=0.01 MHz, x1 = 1) of 1.124 ± 0.011 S/m and a mass density (293.15 K, x1 = 0.0987) of 1107.56 ± 8.9 kg/m3. For the same compound, the mass density (293.15 K, x1 = 0.1859) was 1091.31 ± 8.7 kg/m3, the mass density (293.15 K, x1 = 0.3029) was 1073.37 ± 8.6 kg/m3 and the mass density (293.15 K, x1 = 0.4985) was 1050.78 ± 8.4 kg/m3. For the same compound, the mass density (293.15 K, x1 = 0.6954) was 1034.23 ± 8.3 kg/m3, the mass density (293.15 K, x1 = 0.9013) was 1021.32 ± 8.2 kg/m3 and the mass density (293.15 K, x1 = 1) was 1016.28 ± 8.2 kg/m3. It also gave an electrical conductivity (298.15 K, x1 = 0.0463) of 1.47 ± 0.026 S/m, an electrical conductivity (298.15 K, x1 = 0.0987) of 2.21 ± 0.027 S/m and an electrical conductivity (298.15 K, x1 = 0.1449) of 2.51 ± 0.026 S/m. For the same compound, the electrical conductivity (298.15 K, x1 = 0.1859) was 2.67 ± 0.027 S/m, the electrical conductivity (298.15 K, x1 = 0.2493) was 2.613 ± 0.026 S/m and the electrical conductivity (298.15 K, x1 = 0.3029) was 2.54 ± 0.026 S/m. It also gave an electrical conductivity (298.15 K, x1 = 0.3845) of 2.36 ± 0.024 S/m, an electrical conductivity (298.15 K, x1 = 0.4985) of 2.08 ± 0.021 S/m and an electrical conductivity (298.15 K, x1 = 0.6954) of 1.68 ± 0.017 S/m. For the same compound, the electrical conductivity (298.15 K, x1 = 0.9013) was 1.39 ± 0.014 S/m, the electrical conductivity (298.15 K, x1 = 1) was 1.317 ± 0.013 S/m and the viscosity (298.15 K, x1 = 0.0987) was 2.8 ± 0.06 mPa·s. The viscosity (298.15 K, x1 = 0.1859) was 4.02 ± 0.09 mPa·s and the viscosity (298.15 K, x1 = 0.3029) was 6.19 ± 0.14 mPa·s.
